Target: T1, mineralo-corticoid receptor of the rat kidney (Rattus norvegicus, UniProt P22199)
T1 construct: The kidneys were then removed, decapsulated and homogenized at 0° C; from tissue; host or cells: kidney of adrenalectomized male Sprague-Dawley EOPS rats, 105,000 g supernatant (cytosol)
T1 sequence (P22199 1-981): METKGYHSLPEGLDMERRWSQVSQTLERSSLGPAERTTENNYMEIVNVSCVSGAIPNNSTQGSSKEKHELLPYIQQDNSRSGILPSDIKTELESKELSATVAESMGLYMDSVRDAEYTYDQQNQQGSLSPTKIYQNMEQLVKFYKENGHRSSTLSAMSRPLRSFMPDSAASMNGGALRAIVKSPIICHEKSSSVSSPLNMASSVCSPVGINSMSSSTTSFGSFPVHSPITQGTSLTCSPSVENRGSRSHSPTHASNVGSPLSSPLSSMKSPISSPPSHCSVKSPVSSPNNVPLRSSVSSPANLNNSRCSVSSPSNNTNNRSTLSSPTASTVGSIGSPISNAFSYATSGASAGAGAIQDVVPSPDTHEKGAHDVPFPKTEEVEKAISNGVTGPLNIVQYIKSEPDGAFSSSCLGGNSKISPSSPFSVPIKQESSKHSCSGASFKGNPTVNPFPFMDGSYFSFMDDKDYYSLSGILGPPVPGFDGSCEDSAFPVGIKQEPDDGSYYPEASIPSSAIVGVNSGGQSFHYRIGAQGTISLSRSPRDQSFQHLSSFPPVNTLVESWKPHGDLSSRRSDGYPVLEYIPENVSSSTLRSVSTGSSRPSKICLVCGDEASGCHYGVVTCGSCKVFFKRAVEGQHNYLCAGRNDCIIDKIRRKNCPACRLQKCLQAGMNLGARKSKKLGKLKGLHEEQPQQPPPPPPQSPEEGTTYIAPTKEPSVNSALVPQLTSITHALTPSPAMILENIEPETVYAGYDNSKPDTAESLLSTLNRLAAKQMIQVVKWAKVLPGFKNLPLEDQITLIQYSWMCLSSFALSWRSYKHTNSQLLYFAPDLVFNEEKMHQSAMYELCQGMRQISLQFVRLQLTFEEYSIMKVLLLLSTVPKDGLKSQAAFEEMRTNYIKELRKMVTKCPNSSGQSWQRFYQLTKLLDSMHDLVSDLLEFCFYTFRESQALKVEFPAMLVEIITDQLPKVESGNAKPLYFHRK
Assay: Anti-aldosterone activity: displacement of tritiated aldosterone from the mineralo-corticoid receptor of the rat kidney (relative liaison affinity)
Assay type: binding
Settings: vs cold aldosterone as reference hormone, rat kidney cytosol
Protocol: Study of the anti-aldosterone activity of the mineralo-corticoid receptor of the rat kidney
Male Sprague-Dawley EOPS rats weighing 140 to 160 g, suprarenalectomized 4 to 6 days earlier, were killed and their kidneys were perfused in situ with 50 ml of Tris 10 mM-saccharose 0.25M buffer, HCl pH 7.4. The kidneys were then removed, decapsulated and homogenized at 0° C. with a Potter polytetrafluoroethylene glass (1 g of tissue for 3 ml of buffer). The homogenate was centrifuged for 10 minutes at 800 g at 0° C. To eliminate the fixation of the tritiated aldosterone on the glucocorticoid receptor, 11β,17β-dihydroxy-17α-(1-propynyl)-Δ^1,4,6 -androstatrien-3-one which fixes uniquely on the glucocorticoid receptor was added to the supernatant at a final concentration of 10^-6 M. This supernatant was ultracentrifuged at 105,000 g for 60 minutes at 0° C. and aliquots of the supernatant were incubated at 0° C. with a constant concentration (T) of tritiated aldosterone in the presence of increasing concentrations (0-2500×10^-9 M) of cold aldosterone or of the cold product under study. After an incubation time (t), the concentration of tritiated aldosterone bound (B) was measured by the technique of adsorption on charcoal-dextran.
The calculation of the relative liaison affinity (RLA) was carried out as follows: The two following curves were drawn: the percentage of tritiated hormone bonded B/T as a function of the logarithm of the concentration of the cold reference hormone, and B/T as a function of the logarithm of the concentration of the cold product under test. The straight line of the equation I50 =(B/T max+B/T min)/2 was determine B/T max=percentage of the tritiated hormone bonded for an incubation of this triated hormone at the concentration (T), B/T min=percentage of the tritiated hormone bonded for an incubation of this tritiated hormone at the concentration (T) in the presence of a great excess of cold hormone (2500.10^-9 M). The intersections of the straight line I50 and the curves enabled the concentrations of the cold reference hormone (CH) and of the cold product tested (CX) to be evaluated which inhibited by 50% the bonding of the tritiated hormone on the receptor. The relative liaison affinity (RAL) of the product tested is determined by the equation: [formula] The following results were obtained;

[1] = incubation time at 0° C.: 1 hour
[2] = incubation time at 0° C.: 24 hours

Structure (SMILES) | relative liaison affinity (RLA) [1] | relative liaison affinity (RLA) [2]
C#C[C@]12CCC(=O)C=C1CC[C@@H]1[C@@H]2CC[C@@]2(C)[C@H]1CC[C@@]21CCC(=O)O1 [Example 1, Gamma-lactone of 10β-ethynyl-17β-hydroxy-3-oxo-19-nor-17α-Δ^4-pregnen 21-carboxylic acid] | 125 | 65
CC#C[C@]12CCC(=O)C=C1CC[C@@H]1[C@@H]2CC[C@@]2(C)[C@H]1CC[C@@]21CCC(=O)O1 [Example 3, γ-lactone of 17β-hydroxy-3-oxo-10β-(1-propynyl)-19-nor-17α-Δ^4-pregnene-21-carboxylic acid] | 50 | 43
